This note sets out measurements from ChEMBL document CHEMBL1201862, “PubChem BioAssay data set” (2004).

Test systems include TK-10; UO-31; HOP-62; M14; SK-OV-3; SF-539; SN12C; U-251; OVCAR-3; HCC 2998; NCI-H226; MOLT-4; LOX IMVI; HOP-92; Malme-3M; RXF 393; IGROV-1; SNB-75; NCI-H460; ACHN.
Common to all, as to assay: growth of human tumour cells (NCI), 48 h

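48-hour exposure; five concentrations; linearly interpolated endpoints. Abbreviation: GI50, concentration required for 50% inhibition of growth.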 Active and inactive are the calls of the source. Cut-off read from the data, not from the text of the source: active = GI50 up to about 1.1 µM and inactive = higher.

As to `O=C(CCC=C(S(=O)(=O)c1ccccc1)S(=O)(=O)c1ccccc1)c1ccccc1`, the GI50 with TK-10 was 6.38 µM (inactive); in the test on UO-31 it was 6.15 µM (inactive); in the test on HOP-62 it was 16.8 µM (inactive); in the test on M14, 7.1 µM (inactive); in the test with SK-OV-3 it was 25.4 µM (inactive); in the test on SF-539 it was 2.96 µM (inactive). For the same molecule, the GI50 was 3.26 µM (inactive) in the test with SN12C; 4.03 µM (inactive) in the test with U-251; 4.27 µM (inactive) with OVCAR-3; 7.66 µM (inactive) in the test on HCC 2998; 17.4 µM (inactive) in the test on NCI-H226; 3.98 µM (inactive) with MOLT-4. For the same molecule, the GI50 with LOX IMVI is 3.26 µM (inactive); in the test on HOP-92, 14.5 µM (inactive); in the test with Malme-3M, 4.45 µM (inactive); in the test on RXF 393, 4.18 µM (inactive); in the test with IGROV-1, 12.3 µM (inactive); with SNB-75, 3.61 µM (inactive). For the same molecule, the GI50 with NCI-H460 was 12.9 µM (inactive); in the test on ACHN, 5.93 µM (inactive).

In the case of `CCC1(OC(=O)CNC)C(=O)OCc2c1cc1n(c2=O)Cc2cc3ccccc3nc2-1` (stereo not given), the GI50 with TK-10 was 1.29 µM (inactive); in the test on UO-31, < 0.0125 µM (active); with HOP-62 it was < 0.01 µM (active); in the test with M14, < 0.0105 µM (active); in the test with SK-OV-3, < 0.01 µM (active); in the test on SF-539, < 0.01 µM (active). For the same molecule, the GI50 in the test on SN12C is < 0.01 µM (active); with U-251 it was < 0.01 µM (active); in the test with OVCAR-3, 0.0713 µM (active); with HCC 2998, 0.204 µM (active); in the test with NCI-H226 it was < 0.01 µM (active); in the test with MOLT-4 it was < 0.01 µM (active). Besides, the GI50 in the test with LOX IMVI is < 0.01 µM (active); with HOP-92 it was 0.0491 µM (active); with Malme-3M, 0.0543 µM (active); in the test on RXF 393, 0.0185 µM (active); in the test on IGROV-1, 0.0601 µM (active); in the test on SNB-75, < 0.0104 µM (active). The GI50 in the test on NCI-H460 and with ACHN was < 0.01 µM (active) each time.

On to `COc1ccc(CNc2nc3ccccc3nc2-c2cccs2)cc1`, for which the GI50 in the test on TK-10 was 94.2 µM (inactive); in the test on UO-31, 15.4 µM (inactive); in the test with HOP-62 it was > 100 µM (inactive); in the test on SK-OV-3 it was 43.4 µM (inactive); in the test on SF-539, > 100 µM (inactive); in the test with U-251, 28.8 µM (inactive). The GI50 in the test on OVCAR-3 was 37.4 µM (inactive); in the test on HCC 2998, 45.6 µM (inactive); in the test with NCI-H226 it was > 100 µM (inactive); in the test on MOLT-4 it was 5.31 µM (inactive); with LOX IMVI, 12.2 µM (inactive); in the test on HOP-92, 16.6 µM (inactive). The GI50 with Malme-3M is 50.1 µM (inactive); with RXF 393 it was 23.8 µM (inactive); in the test on IGROV-1 it was 68.9 µM (inactive); with SNB-75, > 100 µM (inactive); with NCI-H460, 24.2 µM (inactive); in the test with ACHN it was 57.5 µM (inactive).

Regarding `CO/C(N)=C(C#N)/N=C/c1cccnc1`, the GI50 in the test on TK-10, in the test on HOP-62, in the test with M14, in the test on SK-OV-3, in the test on SF-539 and in the test with SN12C was > 100 µM (inactive) in each case. For the same molecule, the GI50 in the test with U-251, with OVCAR-3, in the test with HCC 2998, in the test on NCI-H226, in the test with MOLT-4 and in the test on LOX IMVI was > 100 µM (inactive) throughout. The GI50 in the test with HOP-92, with Malme-3M, in the test on RXF 393, in the test with IGROV-1 and with SNB-75 was > 100 µM (inactive) each time.

Turning to `Nc1nc(Cl)cc(NCC2(CO)COC2)n1`, the GI50 in the test with TK-10, in the test on UO-31, in the test on HOP-62, in the test on SK-OV-3, with SF-539 and in the test on SN12C was > 100 µM (inactive) in each case. Also, the GI50 with U-251 was > 100 µM (inactive); in the test with OVCAR-3 it was > 100 µM (inactive); in the test on HCC 2998, > 100 µM (inactive); in the test with NCI-H226, > 100 µM (inactive); in the test with MOLT-4 it was > 10 µM (inactive); in the test with LOX IMVI, > 100 µM (inactive). Also, the GI50 is > 10 µM (inactive) in the test on HOP-92; > 100 µM (inactive) in the test on Malme-3M; > 100 µM (inactive) with RXF 393; > 100 µM (inactive) in the test with IGROV-1; > 100 µM (inactive) with SNB-75; > 100 µM (inactive) with NCI-H460. Also, in the test on ACHN, the GI50 is > 100 µM (inactive).

Regarding `COC(=O)[C@@H](NC(=O)N(Cc1ccccc1)C[C@H](CC(C)C)NC(=O)[C@@H](NC(=O)OC(C)(C)C)C(C)C)C(C)C`, the GI50 in the test with TK-10, in the test on UO-31, with HOP-62, with M14, with SK-OV-3 and in the test on SF-539 was > 100 µM (inactive) throughout. Moreover, the GI50 with U-251, with OVCAR-3, in the test on HCC 2998, with NCI-H226, with MOLT-4 and in the test with LOX IMVI was > 100 µM (inactive) each time. Besides, the GI50 in the test with HOP-92 is > 100 µM (inactive); with Malme-3M, > 100 µM (inactive); with RXF 393, > 100 µM (inactive); in the test with SNB-75, 33.7 µM (inactive); with NCI-H460 it was > 100 µM (inactive); with ACHN, > 100 µM (inactive).

Regarding `C=CC(=O)NC(=N)NC#N`, the GI50 was 142 µM (inactive) with TK-10; 176 µM (inactive) in the test with UO-31; 210 µM (inactive) in the test with HOP-62; 151 µM (inactive) in the test on M14; 175 µM (inactive) in the test on SK-OV-3; 164 µM (inactive) with SF-539. The GI50 is 157 µM (inactive) in the test with SN12C; 158 µM (inactive) in the test on U-251; 169 µM (inactive) in the test with OVCAR-3; 182 µM (inactive) with HCC 2998; 200 µM (inactive) in the test on NCI-H226; > 74.6 µM (inactive) with LOX IMVI. Further, the GI50 is > 39.4 µM (inactive) in the test on HOP-92; 145 µM (inactive) in the test with Malme-3M; > 73.5 µM (inactive) in the test with RXF 393; 181 µM (inactive) with IGROV-1; 155 µM (inactive) with SNB-75; 176 µM (inactive) in the test with NCI-H460. For the same molecule, in the test with ACHN, the GI50 is 121 µM (inactive).

For `COC(=O)[C@]1(c2cc3ccccc3n2S(=O)(=O)c2ccccc2)CC2CCC1NC2` (stereo not given in full), the GI50 is 31.8 µM (inactive) in the test on TK-10; 10.5 µM (inactive) in the test on UO-31; 18 µM (inactive) in the test with HOP-62; 14.2 µM (inactive) in the test with M14; 16.7 µM (inactive) in the test with SK-OV-3; 16.4 µM (inactive) with SF-539. Also, the GI50 in the test with SN12C was 15.7 µM (inactive); with U-251, 13.6 µM (inactive); with OVCAR-3, 17 µM (inactive); with HCC 2998 it was 9.38 µM (inactive); with NCI-H226 it was 14.6 µM (inactive); in the test on LOX IMVI, 15.6 µM (inactive). For the same molecule, the GI50 is 9.25 µM (inactive) with HOP-92; 14.9 µM (inactive) with Malme-3M; 12.2 µM (inactive) in the test on RXF 393; 14 µM (inactive) with IGROV-1; 12.7 µM (inactive) in the test with SNB-75; 14 µM (inactive) with NCI-H460. For the same molecule, the GI50 in the test on ACHN is 21.7 µM (inactive).
